The test system of data set [1] is Coccomyxa actinabiotis. The format is cell-based. The note with it: after one day; 250 mg fresh mass of microalgae from BBM culture. Here is the method: Another experiment was carried out by placing 250 mg of fresh mass of microalgae originating from cultures in BBM medium in the presence of […] of demineralized water which has a composition similar to that of the water from the spent fuel storage pools, namely pH 5.5, conductivity 1.2 μS/cm, containing 280 Bq/l of ^60Co, 530 Bq/l of ^58Co, 66 Bq/l of ^110mAg, 1460 Bq/l of ^124Sb, 1180 Bq/l of ^51Cr, 120 Bq/l of ^65Zn, […] and also tritium (260 000 Bq/l) and ^14C (10 000 Bq/l).

The subject of data set [2] is Coccomyxa actinabiotis. Briefly: Extraction of bound metals from the microalgae with water or HCl. The format is cell-based. As for the experimental part: Experiments in which the metals bound by the algae are solubilized were carried out by incubating these algae (70 mg of fresh matter) in 5 ml of demineralized water, or of demineralized water supplemented with HCl at various concentrations. In neutral medium, the metals are not extracted.
The cations most retained are ^60Co, ^108mAg and ^110mAg. They remain bound to the cell for low concentrations of HCl (pH 4.5 to 2.5). They begin to be released exponentially below a threshold pH of 2.5, Co being the most solidly bound since it is at most 35% extracted after 6 days of exposure at pH 0.5, whereas Ag is 90% extracted under the same conditions. At pH 1.5, 10% of Ag and 2% of Co are extracted after 6 days of exposure.

Data set [3] relates to Coccomyxa actinabiotis. Description: Extraction of bound metals from the microalgae with 0.1 M EDTA pH 4.5. The format is cell-based. The note with it: 0.1 M EDTA pH 4.5, 2 days of exposure. As for the experimental part: Other experiments were carried out in the presence of a 0.1 M solution of EDTA with a pH of 4.5. Under these conditions, 35% of the ^51Cr contained in the algae, but only 1% of the ^60Co and less than 0.5% of ^108mAg and ^116mAg, are extracted after 2 days of exposure.

The subject of data set [4] is Coccomyxa actinabiotis. Briefly: Transported decontamination of storage pool water, 24 h contact. In kind it is cell-based. The note with it: 50 ml water, 9×10^8 cells (140 mg fresh mass). Here is the method:
Water originating from a spent nuclear element storage pool was brought into contact with Coccomyxae actinabiotis(50 ml of water in contact with 9×10^8 cells, i.e. 140 mg of algae by fresh mass, originating from culture and rinsed beforehand three times with Milli-Q water).
Table V below indicates the initial composition of the water, according to the total γ-activity measured and the γ-activity measured per radionuclide, and the percentage of γ-emitting radionuclides bound by the algae at 24 h.

Data set [5] deals with Coccomyxa actinabiotis. Description: Maximum metal concentrations tolerated (one week exposure to Ag or Co). In kind it is cell-based. As for the experimental part: The limiting doses supported by Coccomyxa actinabiotis were investigated by exposure of the algae to silver or to cobalt for one week (20 mg of microalgae (fresh mass) in 100 ml of deionized water containing Ag or Co ions at various concentrations).

In data set [6] the test system is Coccomyxa actinabiotis. Briefly: Growth in the presence of cobalt. The format is cell-based. An excerpt: However, the Coccomyxa actinabiotis microalga does grow in the presence of 10^−4 mol/l of cobalt.
In a further data set the test system is Deinococcus radiodurans. The note with it: John et al. 2000; cited from earlier work.
Data set [7] deals with Coccomyxa actinabiotis. Description: Exposure to heavy water: respiration and photosynthesis of the algae. The note with it: 24 h and 48 h in 50%, 80% and 100% D2O in the dark; 24 h light in 50% D2O. In kind it is cell-based.
In data set [8] the test system is Coccomyxa actinabiotis. Description: Kinetics of binding and incorporation of silver by algae with or without mucilage. In kind it is cell-based. Here is the method:
Two series of experiments were carried out: one with algae having a coating of mucilage, the thickness of which, evaluated by optical microscopy, is about 1 μm or more (“algae with mucilage”), the other with algae cultured in BBM medium and having little or no mucilage (“algae without mucilage”).
20 mg of algae (compacted fresh mass) and 90 ml of solution of Ag^+ at various concentrations are introduced into Erlenmeyer flasks. The 20 mg of algae are prepared as follows: sample taken from a round-bottomed culture flask, centrifugation for 20 minutes at 3000 rpm, washing twice in demineralized water (suspension, centrifugation). The culture medium is thus removed and there is no risk of it complexing the silver.
The algae without mucilage are brought into contact with solutions containing 0.11 mg/L and 5.5 mg/L of Ag^+.
The algae with mucilage are brought into contact with solutions containing 22 μg/L, 1.1 mg/L and 55 mg/L of Ag^+.
The Erlenmeyer flasks are placed on illuminated shakers and samples of 5 ml are taken for various exposure times in order to monitor the binding kinetics for each of the initial concentrations of silver. The samples are centrifuged for 10 minutes at 4500 rpm in order to separate the algae which have concentrated the metal. The metal content is then analyzed in the pellet (algae) and in the supernatant.

Another data set deals with organisms. The note with it: Ratte 1999; cited from earlier work.

Regarding `[51Cr]` [^51Cr], in the data set with Coccomyxa actinabiotis [1], the “percentage of isotope fixed” value amounted to 48%. In the data set with Coccomyxa actinabiotis [2] (pH 0.5, 6 days of exposure), the “metal extracted from algae” value is listed as at most 25%. Besides, the “metal contained in the algae extracted” value in the data set with Coccomyxa actinabiotis [3] was 35%.

As to `[Mn]` [^54Mn], in the data set with Coccomyxa actinabiotis [1], the “percentage of isotope fixed” value came out at 90%. Further, the “% binding by the algae” value with Coccomyxa actinabiotis [4] is given as 100%.

Regarding `[58Co]` [^58Co], in the data set with Coccomyxa actinabiotis [1], the “percentage of isotope fixed” value came out at 94%.

For the compound `[60Co]` [^60Co], the “percentage of isotope fixed” value in the data set on Coccomyxa actinabiotis [1] is recorded as 94%. For the same compound, the “metal contained in the algae extracted” value in the data set with Coccomyxa actinabiotis [3] was 1%. The “% binding by the algae” value with Coccomyxa actinabiotis [4] came out at 72%.

For the compound `[65Zn]` [^65Zn], the “percentage of isotope fixed” value with Coccomyxa actinabiotis [1] is 100%.

In the case of `[110Ag]` [^110mAg], the “percentage of isotope fixed” value in the data set on Coccomyxa actinabiotis [1] was 100%. The “% binding by the algae” value in the data set with Coccomyxa actinabiotis [4] is given as 100%.

For `[124Sb]` [^124Sb], in the data set with Coccomyxa actinabiotis [1], the “percentage of isotope fixed” value came to 30%.

As for `[137Cs]` [^137Cs], the “% binding by the algae” value in the data set on Coccomyxa actinabiotis [4] was 100%.

In the case of `[U]` [^238U], in the data set on Coccomyxa actinabiotis [4], the “% binding by the algae” value was determined as 95%.

As to `[Co+2]` [cobalt], the “metal extracted from algae” value in the data set on Coccomyxa actinabiotis [2] (pH 0.5, 6 days of exposure) is recorded as “at most 35%”; in the data set with Coccomyxa actinabiotis [2] (pH 1.5, 6 days of exposure), 2%. The “cobalt intolerance threshold (Co2+ concentration)” value in the data set with Coccomyxa actinabiotis [5] (with mucilage) is above 800 mg/L; in the data set on Coccomyxa actinabiotis [5] (without mucilage) it was above 50 mg/L. Besides, the “cobalt concentration in the presence of which the microalga grows” value with Coccomyxa actinabiotis [6] was 10^−4 mol/l. In the data set on Deinococcus radiodurans, the “cobalt concentration inhibiting growth” value is recorded as 5 ppm.

Take `[2H]O[2H]` [heavy water]: the “effect on respiration and photosynthesis of the algae” value with Coccomyxa actinabiotis [7] is “no effect”.

As to `[Ag]` [silver], the “metal extracted from algae” value is 90% with Coccomyxa actinabiotis [2] (pH 0.5, 6 days of exposure) and 10% in the data set with Coccomyxa actinabiotis [2] (pH 1.5, 6 days of exposure). The “silver bound at the plateau” value with Coccomyxa actinabiotis [8] (algae with mucilage, initial concentration 55 mg/l) stood at 20%; with Coccomyxa actinabiotis [8] (algae without mucilage, initial concentration 5.5 mg/l), 75%. Besides, in the data set with Coccomyxa actinabiotis [5] (Coccomyxae actinabiotis with mucilage), the “extracellular silver concentration withstood” value is recorded as “at least 50 mg/L”. In addition, in the data set with Coccomyxa actinabiotis [5] (Coccomyxae actinabiotis without mucilage), the “silver concentration at which algae do not survive” value is reported as “greater than 250 μg/L”. Also, in the data set on organisms, the “concentration at which silver is generally toxic” value is 10^−7-10^−5 mol/l.

(Values after US8673620B2, “Radioresistant alga of the Coccomyxa genus” (priority 2010, dated 2014).)
